Source: patent US10391086B2, “Use of EP4 receptor antagonists in the treatment of cartilage disease” (AskAt Inc., priority 2013, dated 2019)

Test system: bovine full-depth cartilage explants
Test: Ex vivo bovine cartilage explant model
Assay type: cell-based
Settings: serum-free culture, biomarkers (P2NP, C2M, AGNx1, AGNx2) in supernatant at day 7, 14 and 21, FIG. 1 (C2M) and FIG. 2 (AGNx2), oncostatin M + TNF-alpha
Method: The method of this assay is descrived in the following literature (Rheumatol Int. 2013 February; 33(2):401-11).
Full-depth cartilage explants were harvested from the knee of either back legs of a cow less than 24 month old. All the FDC explants are divided into different treatment group according to the explants weight and metabolic activity (viability) measured by Alamar Blue. Compounds were freshly added to the explants at each media change. The explants were cultured in serum-free conditions. Supernatants retrieved from the culture were analyzed by biomarkers (P2NP, C2M, AGNx1, AGNx2) at day 7, 14 and 21.

CCc1nc2c(C)nc(C)cc2n1-c1ccc(CCNC(=O)NS(=O)(=O)c2ccc(C)cc2)cc1 [Compound A, 3-[2-(4-{2-ethyl-4,6-dimethyl-1H-imidazo[4,5-c]pyridin-1-yl}phenyl)ethyl]-1-[(4-methylbenzene)sulfonyl]urea]
inhibition of cartilage destruction: dose-dependent inhibition of cartilage destruction

C[C@H](NC(=O)c1cc(Cl)cnc1Oc1cccc(F)c1)c1ccc(C(=O)O)cc1 [Compound B, 4-[(1S)-1-({[5-chloro-2-(3-fluorophenoxy)pyridin-3-yl]carbonyl}amino)ethyl]benzoic acid]
inhibition of cartilage destruction: dose-dependent inhibition of cartilage destruction
